Reference: patent publication US20220387430A1, “USE OF COMPOUND IN PREVENTING OR TREATING GRAFT VERSUS HOST DISEASE” (SHENZHEN CHIPSCREEN BIOSCIENCES, CO., LTD., priority 2019, published 2022)

Test system: GVHD model mice (BALB/c receptor mice, C57BL/6 donor mice)
Experiment: GVHD model induced by mouse allogeneic bone marrow transplantation
Type: in vivo
Settings: for survival rate at 61 days: 61 days after allogeneic bone marrow transplantation
Description: This study evaluates a pharmacodynamics effect of a test drug CS12192 in a GVHD model induced by mouse allogeneic bone marrow transplantation. In the GVHD model, 6-8 week old of two types of C57BL/6 (H-2b) and BALB/c (H-2d) male mice are used as donor and receptor animals respectively. Wherein, C57BL/6 mice are the donor mice, and BALB/c mice are the receptor mice.
The receptor mice are sent to an irradiation center to receive 8.5 Gry systemic irradiation on the day before transplantation, and after the irradiation, the mice are randomly divided into groups according to the body weights of the mice. On day 0, after 3-5% isoflurane pre-anesthesia, the donor mice are killed by cervical dislocation, and spleens are excised in a sterile environment, ground, and filtered by a sterile filter. Then red blood cells are digested with ammonium chloride buffer solution, lymphocytes are washed twice with RPMI 1640 culture solution, and finally resuspended in RPMI 1640 culture solution containing 10% fetal bovine serum, to prepare a lymphocyte suspension.
The receptor mice are divided into 6 groups, and each group includes 10 mice.

Compound	survival rate at 61 days (CS12192 40 mg/kg twice a day, p<0.0005 relative to the vehicle control)	survival rate at 61 days (CS12192 80 mg/kg twice a day, p<0.0001 relative to the vehicle control)	weight gains of the mice (CS12192 two-dose groups (40 and 80 mg/kg twice a day) versus positive drug prednisolone group and solvent control group (FIG. 2))	survival rate at 61 days (prednisolone 20 mg/kg once a day, p<0.01 relative to the vehicle control)
C=CC(=O)N(C)c1cc(Nc2ncc(Cl)c(NCCCNC(=O)c3ccc(C#N)cc3)n2)ccc1F [CS12192]	89%	100%	significantly better than that of the positive drug prednisolone group	–
C[C@]12C=CC(=O)C=C1CC[C@@H]1[C@@H]2[C@@H](O)C[C@@]2(C)[C@H]1CC[C@]2(O)C(=O)CO [prednisolone, reference compound]	–	–	–	67%
